Consider three compounds from ChEMBL document CHEMBL1158919, “Antiviral Activity of Ternatin and Meliternatin, 3-Methoxyflavones from Species of Rutaceae” (J Nat Prod, 1990).

pEC50: −log10 of the molar value. The source made the active and inactive calls. The rule behind the calls is not given here.

The nature of data set [1]: Therapeutic index, ratio of CyD50 for african green monkey Vero cells to ED50 for 10^-3 MOI HSV1. Type of data set: cell-based. As to conditions: read-out: TI.
A short description of data set [2]: Therapeutic index, ratio of CyD50 for african green monkey Vero cells to ED50 for 10^-2 MOI HSV2. Type of data set: cell-based. Particulars: read-out: TI.
Data set [3] has as its system Vesicular stomatitis virus. In words: Antiviral activity against 10^-3 MOI VSV infected in african green monkey Vero cells assessed as inhibition of virus-induced cytopathic effect. As to conditions: read-out: ED50 (the source's name). Type of data set: functional. On the technique in general: Protection from cytopathic effect is a common read-out in antiviral testing.

Data set [4] can be described thus: Therapeutic index, ratio of CyD50 for african green monkey Vero cells to ED50 for 10^-2 MOI Poliovirus 2. Type of data set: cell-based. As to conditions: read-out: TI.
Data set [5] in a line: Therapeutic index, ratio of CyD50 for african green monkey Vero cells to ED50 for 10^-3 MOI VSV. Particulars: read-out: TI. It is filed as cell-based.
The test system of data set [6] is Human alphaherpesvirus 2. Put plainly: Antiviral activity against HSV2 infected in african green monkey Vero cells assessed as log reduction in viral titer. Type of data set: functional.
Data set [7] concerns Vesicular stomatitis virus. In words: Antiviral activity against 10^-2 MOI VSV infected in african green monkey Vero cells assessed as inhibition of virus-induced cytopathic effect. It is filed as functional. Particulars: read-out: ED50 (the source's name).
Data set [8] relates to Vero. Put plainly: Cytotoxicity against african green monkey Vero cells assessed as cell lysis at >200 uM after 96 hrs. As to conditions: chlorocebus sabaeus. Type of data set: cell-based.
The test system of data set [9] is Poliovirus 2. Put plainly: Antiviral activity against 10^-2 MOI Poliovirus type 2 infected in african green monkey Vero cells assessed as inhibition of virus-induced cytopathic effect. It is filed as functional. Particulars: Enterovirus C, read-out: ED50 (the source's name).
Data set [10] deals with Human adenovirus 2. Put plainly: Antiviral activity against Human adenovirus 2 infected in african green monkey Vero cells assessed as log reduction in viral titer. Type of data set: functional.
Data set [11] in a line: Therapeutic index, ratio of CyD50 for african green monkey Vero cells to ED50 for 10^-3 MOI Human adenovirus 2. Particulars: read-out: TI. Type of data set: cell-based.
A short description of data set [12]: Therapeutic index, ratio of CyD50 for african green monkey Vero cells to ED50 for 10^-2 MOI Human adenovirus 2. It is filed as cell-based. As to conditions: read-out: TI.
Data set [13] concerns Human alphaherpesvirus 2. In words: Antiviral activity against 10^-2 MOI HSV2 infected in african green monkey Vero cells assessed as inhibition of virus-induced cytopathic effect. As to conditions: Human alphaherpesvirus 2, Vero; read-out: ED50 (the source's name). It is filed as functional.
Data set [14] concerns Vero. Put plainly: Cytotoxicity against african green monkey Vero cells up to 800 uM after 96 hrs. It is filed as cell-based. As to conditions: chlorocebus sabaeus.
Data set [15] has as its system Vero. Put plainly: Cytotoxicity against african green monkey Vero cells up to 200 uM after 96 hrs. Type of data set: cell-based. As to conditions: chlorocebus sabaeus.
The nature of data set [16]: Therapeutic index, ratio of CyD50 for african green monkey Vero cells to ED50 for 10^-3 MOI HSV2. Type of data set: cell-based. Particulars: read-out: TI.
Data set [17] has as its system Human alphaherpesvirus 2. Put plainly: Antiviral activity against 10^-3 MOI HSV2 infected in african green monkey Vero cells assessed as inhibition of virus-induced cytopathic effect. It is filed as functional. As to conditions: Human alphaherpesvirus 2, Vero; read-out: ED50 (the source's name).
The test system of data set [18] is Human adenovirus 2. Put plainly: Antiviral activity against 10^-2 MOI Human adenovirus 2 infected in african green monkey Vero cells assessed as inhibition of virus-induced cytopathic effect. It is filed as functional. As to conditions: Human mastadenovirus C, read-out: ED50 (the source's name).
In data set [19] the test system is Human alphaherpesvirus 1. In words: Antiviral activity against 10^-3 MOI HSV1 infected in african green monkey Vero cells assessed as inhibition of virus-induced cytopathic effect. It is filed as functional. As to conditions: Human alphaherpesvirus 1, Vero; read-out: ED50 (the source's name).
Data set [20] deals with Human alphaherpesvirus 1. In words: Antiviral activity against 10^-2 MOI HSV1 infected in african green monkey Vero cells assessed as inhibition of virus-induced cytopathic effect. Type of data set: functional, organism-based.
For data set [21], the system named is Human alphaherpesvirus 1. In words: Antiviral activity against HSV1 infected in african green monkey Vero cells assessed as log reduction in viral titer. It is filed as functional.
Data set [22] has as its system Poliovirus 2. Put plainly: Antiviral activity against 10^-3 MOI Poliovirus type 2 infected in african green monkey Vero cells assessed as inhibition of virus-induced cytopathic effect. Particulars: Enterovirus C, read-out: ED50 (the source's name). It is filed as functional.
Data set [23] concerns Vesicular stomatitis virus. Put plainly: Antiviral activity against VSV infected in african green monkey Vero cells assessed as log reduction in viral titer. It is filed as functional.
In data set [24] the test system is Human adenovirus 2. In words: Antiviral activity against 10^-3 MOI Human adenovirus 2 infected in african green monkey Vero cells assessed as inhibition of virus-induced cytopathic effect. Type of data set: functional. Particulars: Human mastadenovirus C, read-out: ED50 (the source's name).
Data set [25] concerns Poliovirus 2. In words: Antiviral activity against Poliovirus type 2 infected in african green monkey Vero cells assessed as log reduction in viral titer at 1.12 ug/mL. It is filed as functional.
Data set [26] is described as follows: Therapeutic index, ratio of CyD50 for african green monkey Vero cells to ED50 for 10^-2 MOI VSV. Type of data set: cell-based. As to conditions: read-out: TI.
Data set [27] can be described thus: Therapeutic index, ratio of CyD50 for african green monkey Vero cells to ED50 for 10^-3 MOI Poliovirus 2. As to conditions: read-out: TI. It is filed as cell-based.
Data set [28] has as its system Poliovirus 2. In words: Antiviral activity against Poliovirus type 2 infected in african green monkey Vero cells assessed as reduction in viral titer at 5 ug/mL. It is filed as functional, organism-based.
Data set [29] concerns Vero. Put plainly: Cytotoxicity against african green monkey Vero cells assessed as cell lysis at >800 uM after 96 hrs. Type of data set: cell-based. Particulars: chlorocebus sabaeus.

As to `COc1cc(-c2oc3c(OC)c(OC)cc(O)c3c(=O)c2OC)ccc1O` [TERNATIN], the selectivity ratio in data set [1] stood at 4.6; in data set [2] it was 2; in [4], 50; in data set [5], 5.2; in data set [11] it was 20; in data set [12], 20. For the same compound, the figures for the selectivity ratio in [16], in data set [26] and in data set [27] were 14.4, 4.2 and 66.6, respectively. Besides, the pEC50 is 4.42 in data set [3]; 4.32 in data set [7]; 5.40 with Poliovirus 2 [9]; 4.00 in the data set on Human alphaherpesvirus 2 [13]; 4.85 with Human alphaherpesvirus 2 [17]; 5.00 in the data set with Human adenovirus 2 [18]. The results for the pEC50 in the data set on Human alphaherpesvirus 1 [19], with Poliovirus 2 [22] and in the data set with Human adenovirus 2 [24] were 4.36, 5.52 and 5.00, respectively. Moreover, the Activity was 2 in the data set with Human alphaherpesvirus 2 [6]; “Toxic” in the data set with Vero [8]; 3 in the data set on Human adenovirus 2 [10]; “Non-toxic” in the data set with Vero [14]; “Non-toxic” in the data set with Vero [15]; 1 in the data set with Human alphaherpesvirus 1 [21]. Also, the results for the Activity (in data set [23]; in the data set on Poliovirus 2 [25]) were 2 and 5, respectively. In addition, the ED50 entry in the data set on Human alphaherpesvirus 1 [20] was “inactive”.
With `COc1c(-c2ccc(O)c(O)c2)oc2cc(O)cc(O)c2c1=O`, the outcome in the data set with Poliovirus 2 [28] was Active.
For `COc1c(-c2ccc3c(c2)OCO3)oc2cc3c(c(OC)c2c1=O)OCO3` [MELITERNATIN], the Activity result in the data set with Vero [29] is on record as “Toxic”.
